Source: US20100256206A1, “CRYSTALLINE FORM B OF OLMESARTAN MEDOXOMIL” (priority 2007, published 2010)

Key:
[1] = Thermo-Gravimetric Analysis (TGA) of the powder; format: physicochemical; settings: at processing temperatures and storage temperatures; TGA 25-300° C. @ 5° C./min
Method: The powder obtained by the process according to the invention as described above and in the following examples was also subjected to Thermo-Gravimetric Analysis (TGA). […] Indeed, the DSC and XRPD experiments indicate that no polymorphic transition of crystalline form B occurs up to temperatures of ca. 170° C.
The TGA analysis data was obtained using a Mettler-Toledo TGA851e apparatus under the following parameters:
Temperature profile: 25-300° C. @ 5° C./min
Nitrogen purge gas, 50 ml/min
Aluminium pan, […], pierced prior to scan

[2] = DSC and XRPD experiments, polymorphic transition; format: physicochemical
Method: The X-ray powder diffraction data was obtained by methods known in the art using a Bruker D8 Advance Powder Diffractometer with scintillation detector under the following parameters: Reflection mode Cu Kα radiation (1.5406 Å) Scanning range: 2-50 °2θ Step size: 0.02 °2θ Time per step: 2 s The powder obtained by the process according to the invention as described above and in the following examples was also subjected to Differential Scanning Calorimetry (DSC). The DSC thermal analysis data was obtained using a Mettler-Toledo DSC821e apparatus under the following parameters: • Temperature profile: 25-300° C. @ 5° C./min • Nitrogen purge gas, 50 ml/min • Aluminium pan, […], pierced prior to scan The powder obtained by the process according to the invention as described above and in the following examples was also subjected to Thermo-Gravimetric Analysis (TGA). […] Indeed, the DSC and XRPD experiments indicate that no polymorphic transition of crystalline form B occurs up to temperatures of ca. 170° C.

[3] = cited from earlier work

With `CCCc1nc(C(C)(C)O)c(C(=O)OCc2oc(=O)oc2C)n1Cc1ccc(-c2ccccc2-c2nnn[nH]2)cc1` [crystalline form B, 2,3-dihydroxy-2-butenyl 4-(1-hydroxy-1-methylethyl)-2-propyl-1-[p-(o-tetrazol-5-yl-phenyl)benzyl]imidazole-5-carboxylate cyclic 2,3-carbonate] the “chemical stability, degradation by conversion to other polymorphic forms” value [1] was “chemically stable” and the “temperature up to which no polymorphic transition occurs” value [2] was “ca. 170 °C”.
In the case of `CCCc1nc(C(C)(C)O)c(C(=O)OCc2oc(=O)oc2C)n1Cc1ccc(-c2ccccc2-c2nnn[nH]2)cc1` [Olmesartan medoxomil, 2,3-dihydroxy-2-butenyl 4-(1-hydroxy-1-methylethyl)-2-propyl-1-[p-(o-tetrazol-5-yl-phenyl)benzyl]imidazole-5-carboxylate cyclic 2,3-carbonate], the aqueous solubility [3] is listed as “very low”.
